These are literature values, as cited in patent publication US12594238B2, “Low hygroscopicity active powder compositions” (PHILIP MORRIS PRODUCTS S.A., priority 2020, dated 2026).

For the data set the following is noted: at 25° C.

SMILES strings stand for the structures.

`OC[C@H]1O[C@H](O[C@H]2O[C@H](CO)[C@@H](O)[C@H](O)[C@H]2O)[C@H](O)[C@@H](O)[C@@H]1O` [trehalose]: the solubility is 69 g/100 ml water.
